The target of this test is T1, PE-labeled human PD-L1-Ig binding to Jurkat cell line over-expressing human PD-1 (Jurkat-PD-1) (Homo sapiens, UniProt Q15116).
T1 construct: expressed in transfected cells; host or cells: Jurkat
As to the kind of experiment: Jurkat-PD-1 Cell Binding High-Content Screening Assay (CBA): Method 1. The conditions noted are these: Jurkat-hPD-1 cells, PE-labeled PD-L1-Ig 20 nM final; read-out: Jurkat HPDL1 PD1 IC50 (uM) (Method 1).

Results on 15 compounds are retold here after patent US20240409585A1, “MACROCYCLIC IMMUNOMODULATORS” (priority 2021, published 2024).

Bridge positions count the residues as written; N and C are the ends. Square brackets hold non-standard residues; d marks the D form. Peptide text beside a SMILES is read from it. * marks the point of attachment. ξ: configuration not given here. Tyr(3,5-I2) = N[C@@H](Cc1cc(I)c(O)c(I)c1)C(=O)O; Phe(4-COOH) = N[C@@H](Cc1ccc(C(=O)O)cc1)C(=O)O; Trp(7-Me) = Cc1cccc2c(C[C@H](N)C(=O)O)c[nH]c12; Phe(3,4-F2) = N[C@@H](Cc1ccc(F)c(F)c1)C(=O)O; Bip = N[C@@H](Cc1ccc(-c2ccccc2)cc1)C(=O)O; Phe(3-OMe) = COc1cccc(C[C@H](N)C(=O)O)c1; Morpholine(3S-CO) = O=C(O)[C@@H]1COCCN1; Phe(3-Me) = Cc1cccc(C[C@H](N)C(=O)O)c1; 1Nal = N[C@@H](Cc1cccc2ccccc12)C(=O)O; Val(3-OH) = CC(C)(O)[C@H](N)C(=O)O; 4Pal = N[C@@H](Cc1ccncc1)C(=O)O; 2Thi = N[C@@H](Cc1cccs1)C(=O)O; Cha = N[C@@H](CC1CCCCC1)C(=O)O; Cit = NC(=O)NCCC[C@H](N)C(=O)O; Ile(3ξ) = CCC(C)[C@H](N)C(=O)O; Thr(3ξ) = CC(O)[C@H](N)C(=O)O; Carboxymethyl = O=C(O)C*; NMeA = CN[C@@H](C)C(=O)O; Nle = CCCC[C@H](N)C(=O)O; Orn = NCCC[C@H](N)C(=O)O; Dab = NCC[C@H](N)C(=O)O; Dap = NC[C@H](N)C(=O)O

T1 sequence (Q15116 25-288): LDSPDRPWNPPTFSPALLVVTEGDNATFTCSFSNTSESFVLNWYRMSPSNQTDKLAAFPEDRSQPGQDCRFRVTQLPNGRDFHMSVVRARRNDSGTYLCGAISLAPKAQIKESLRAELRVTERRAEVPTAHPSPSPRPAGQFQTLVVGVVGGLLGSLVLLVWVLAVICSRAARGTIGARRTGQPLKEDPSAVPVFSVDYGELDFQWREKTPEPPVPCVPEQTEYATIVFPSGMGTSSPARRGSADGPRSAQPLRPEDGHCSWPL

On to `COc1cccc(C[C@@H]2NC(=O)[C@H](CC(=O)O)NC(=O)[C@H](Cc3ccc(O)cc3)NC(=O)[C@H](Cc3ccccc3)NC(=O)CSC[C@@H](C(=O)NCC(N)=O)NC(=O)[C@H](CO)NC(=O)[C@H](C(C)C)NC(=O)[C@H](CC(C)C)NC(=O)[C@H](CC(N)=O)NC(=O)[C@@H](CC(C)C)NC(=O)[C@H](C)N(C)C(=O)[C@H](C(C)C)NC(=O)[C@H](Cc3ccc(-c4ccccc4)cc3)NC(=O)[C@H](CC(C)C)NC2=O)c1` [Compound 1516] ({CH2CO}-FYD[Phe(3-OMe)]L[Bip]V[NMeA][dL]NLVSCG-NH2; thioether N-14), for which the half-maximal inhibitory concentration (IC50) – broadly, the point on the concentration scale where inhibition reaches its midpoint – was 0.02 µM.

With `CCCC[C@@H]1NC(=O)CSC[C@@H](C(=O)NCC(N)=O)NC(=O)[C@H](CO)NC(=O)[C@H](C(C)C)NC(=O)[C@H](CC(C)C)NC(=O)[C@H](CC(=O)O)NC(=O)[C@H](CC(N)=O)NC(=O)[C@H](C)N(C)C(=O)[C@H](C(C)C)NC(=O)[C@H](Cc2ccc(-c3ccccc3)cc2)NC(=O)[C@H](CC(C)C)NC(=O)[C@H](Cc2c[nH]c3ccccc23)NC(=O)[C@H](CC(=O)O)NC(=O)[C@H](Cc2ccc(O)cc2)NC1=O` [Compound 1828] ({CH2CO}-[Nle]YDWL[Bip]V[NMeA]NDLVSCG-NH2; thioether N-14), the IC50 amounted to 0.82 µM.

Consider `CC(C)C[C@@H]1NC(=O)[C@H](CCN)NC(=O)[C@@H](CC(C)C)NC(=O)[C@H](C)N(C)C(=O)[C@H](CCCNC(=N)N)NC(=O)[C@H](Cc2ccc(-c3ccccc3)cc2)NC(=O)[C@H](C(C)C)NC(=O)[C@H](Cc2c[nH]c3ccccc23)NC(=O)[C@H](CC(=O)O)NC(=O)[C@H](Cc2ccc(O)cc2)NC(=O)[C@H](CC(N)=O)NC(=O)CSC[C@@H](C(=O)N[C@@H](C)C(N)=O)NC(=O)[C@H]([C@@H](C)O)NC(=O)[C@H](C(C)C)NC1=O` [Compound 1189] ({CH2CO}-NYDWV[Bip]R[NMeA][dL][Dab]LVTCA-NH2; thioether N-14), for which the IC50 came to 0.03 µM.

Regarding `CC[C@H](C)[C@@H]1NC(=O)[C@H](Cc2ccc(-c3ccccc3)cc2)NC(=O)[C@H](C(C)(C)O)NC(=O)[C@H](Cc2cccc(C)c2)NC(=O)[C@H](CC(=O)O)NC(=O)[C@H](Cc2ccc(O)cc2)NC(=O)[C@H](CC(N)=O)NC(=O)CSC[C@@H](C(=O)N[C@@H](CCN)C(N)=O)NC(=O)[C@H](CCC(=O)O)NC(=O)[C@H](C(C)C)NC(=O)[C@H](CC2CCCCC2)NC(=O)[C@H](CCN)NC(=O)[C@@H](CC(C)C)NC(=O)[C@H](C)N(C)C1=O` [Compound 1697] ({CH2CO}-NYD[Phe(3-Me)][Val(3-OH)][Bip]I[NMeA][dL][Dab][Cha]VEC[Dab]-NH2; thioether N-14), the IC50 came out at 0.02 µM.

For the compound `CC(C)C[C@@H]1NC(=O)[C@H](CCN)NC(=O)[C@@H](CC(C)C)NC(=O)[C@@H]2COCCN2C(=O)[C@H](C(C)C)NC(=O)[C@H](Cc2ccc(-c3ccccc3)cc2)NC(=O)[C@H](C(C)C)NC(=O)[C@H](Cc2c[nH]c3ccccc23)NC(=O)[C@H](CC(=O)O)NC(=O)[C@H](Cc2ccc(O)cc2)NC(=O)[C@H](CC(N)=O)NC(=O)CSC[C@@H](C(=O)N[C@@H](C)C(N)=O)NC(=O)[C@H]([C@@H](C)O)NC(=O)[C@H](C(C)C)NC1=O` [Compound 1367] ({CH2CO}-NYDWV[Bip]V[Morpholine(3S-CO)][dL][Dab]LVTCA-NH2; thioether N-14), the IC50 stood at 0.39 µM.

On to `CCC(C)[C@@H]1NC(=O)[C@H](Cc2ccc(-c3ccccc3)cc2)NC(=O)[C@H](C(C)C)NC(=O)[C@H](Cc2cccc(C)c2)NC(=O)[C@H](CC(=O)O)NC(=O)[C@H](Cc2ccc(OCC(=O)O)cc2)NC(=O)[C@H](Cc2ccncc2)NC(=O)CSC[C@@H](C(=O)N[C@@H](CO)C(=O)O)NC(=O)[C@H](CO)NC(=O)[C@H](C(C)C)NC(=O)[C@H](CC2CCCCC2)NC(=O)[C@H](CCN)NC(=O)[C@@H](CC(C)C)NC(=O)[C@H](C)N(C)C1=O` (stereo partly drawn) [Compound 2236] ({CH2CO}-[4Pal]Y(Carboxymethyl)D[Phe(3-Me)]V[Bip][Ile(3ξ)][NMeA][dL][Dab][Cha]VSCS-OH; thioether N-14), for which the IC50 came out at 0.31 µM.

For the compound `CCC(C)[C@@H]1NC(=O)[C@H](Cc2ccc(-c3ccccc3)cc2)NC(=O)[C@H](C(C)C)NC(=O)[C@H](Cc2c[nH]c3ccccc23)NC(=O)[C@H](CC(=O)O)NC(=O)[C@H](Cc2ccc(O)cc2)NC(=O)[C@H](Cc2cccs2)NC(=O)CSC[C@@H](C(=O)N2CCC[C@H]2C(N)=O)NC(=O)[C@H](C(C)O)NC(=O)[C@H](C(C)(C)O)NC(=O)[C@H](CC2CCCCC2)NC(=O)[C@H](CC(N)=O)NC(=O)[C@@H](CC(C)C)NC(=O)[C@H](C)N(C)C1=O` (stereo partly drawn) [Compound 2174] ({CH2CO}-[2Thi]YDWV[Bip][Ile(3ξ)][NMeA][dL]N[Cha][Val(3-OH)][Thr(3ξ)]CP-NH2; thioether N-14), the 50% inhibitory concentration (IC50) stood at 0.31 µM.

For the compound `Cc1cccc(C[C@@H]2NC(=O)[C@H](CC(=O)O)NC(=O)[C@H](Cc3ccc(OCC(=O)O)cc3)NC(=O)[C@H](Cc3ccc(OCC(=O)O)cc3)NC(=O)CSC[C@@H](C(=O)N[C@@H](C)C(N)=O)NC(=O)[C@H](CO)NC(=O)[C@H](Cc3ccccc3)NC(=O)[C@H](CC(C)C)NC(=O)[C@H](CC(N)=O)NC(=O)[C@@H](CC(C)C)NC(=O)[C@H](C)N(C)C(=O)[C@H](Cc3ccccc3)NC(=O)[C@H](Cc3ccc(-c4ccccc4)cc3)NC(=O)[C@H](CC(C)C)NC2=O)c1` [Compound 1587] ({CH2CO}-Y(Carboxymethyl)Y(Carboxymethyl)D[Phe(3-Me)]L[Bip]F[NMeA][dL]NLFSCA-NH2; thioether N-14), the IC50 came to 0.7 µM.

Turning to `CC(C)C[C@@H]1NC(=O)[C@H](CCN)NC(=O)[C@@H](CC(C)C)NC(=O)[C@H](C)N(C)C(=O)[C@H](CCCNC(N)=O)NC(=O)[C@H](Cc2ccc(-c3ccccc3)cc2)NC(=O)[C@H](C(C)C)NC(=O)[C@H](Cc2c[nH]c3ccccc23)NC(=O)[C@H](CC(=O)O)NC(=O)[C@H](Cc2ccc(O)cc2)NC(=O)[C@H](CCCNC(=N)N)NC(=O)CSC[C@@H](C(=O)N[C@@H](C)C(N)=O)NC(=O)[C@H]([C@@H](C)O)NC(=O)[C@H](C(C)C)NC1=O` [Compound 1351] ({CH2CO}-RYDWV[Bip][Cit][NMeA][dL][Dab]LVTCA-NH2; thioether N-14), the IC50 is 0.05 µM.

In the case of `Cc1cccc(C[C@@H]2NC(=O)[C@H](CC(=O)O)NC(=O)[C@H](Cc3ccc(OCC(=O)O)cc3)NC(=O)[C@H](CN)NC(=O)CSC[C@@H](C(=O)N[C@@H](CCN)C(N)=O)NC(=O)[C@H](CCCN)NC(=O)[C@H](C(C)C)NC(=O)[C@H](CC(C)C)NC(=O)[C@H](CCN)NC(=O)[C@@H](C)NC(=O)[C@H](C)N(C)C(=O)[C@H](Cc3ccc(O)cc3)NC(=O)[C@H](Cc3ccc(-c4ccccc4)cc3)NC(=O)[C@H](Cc3ccc(O)cc3)NC2=O)c1` [Compound 1874] ({CH2CO}-[Dap]Y(Carboxymethyl)D[Phe(3-Me)]Y[Bip]Y[NMeA][dA][Dab]LV[Orn]C[Dab]-NH2; thioether N-14), the IC50 was found to be 0.28 µM.

As for `CC(C)C[C@@H]1NC(=O)[C@H](CCCNC(=N)N)NC(=O)[C@H](Cc2cccc3ccccc23)NC(=O)[C@H](C)N(C)C(=O)[C@H](CCCNC(=N)N)NC(=O)[C@H](Cc2ccc(-c3ccccc3)cc2)NC(=O)[C@H](C(C)C)NC(=O)[C@H](Cc2c[nH]c3ccccc23)NC(=O)[C@H](CC(=O)O)NC(=O)[C@H](Cc2ccc(O)cc2)NC(=O)[C@H](CC(N)=O)NC(=O)CSC[C@@H](C(=O)N[C@@H](C)C(N)=O)NC(=O)[C@H]([C@@H](C)O)NC(=O)[C@H](C(C)C)NC1=O` [Compound 1185] ({CH2CO}-NYDWV[Bip]R[NMeA][1Nal]RLVTCA-NH2; thioether N-14), the IC50 turned out to be 0.35 µM.

For `CC(C)C[C@@H]1NC(=O)[C@H](CCCNC(=N)N)NC(=O)[C@H](Cc2ccc(F)c(F)c2)NC(=O)[C@H](C)N(C)C(=O)[C@H](CCCNC(=N)N)NC(=O)[C@H](Cc2ccc(-c3ccccc3)cc2)NC(=O)[C@H](C(C)C)NC(=O)[C@H](Cc2c[nH]c3ccccc23)NC(=O)[C@H](CC(=O)O)NC(=O)[C@H](Cc2ccc(O)cc2)NC(=O)[C@H](Cc2ccccc2)NC(=O)CSC[C@@H](C(=O)NCC(N)=O)NC(=O)[C@H](CO)NC(=O)[C@H](C(C)C)NC1=O` [Compound 1015] ({CH2CO}-FYDWV[Bip]R[NMeA][Phe(3,4-F2)]RLVSCG-NH2; thioether N-14), the IC50 is 0.16 µM.

As for `Cc1cccc2c(C[C@@H]3NC(=O)[C@H](CC(=O)O)NC(=O)[C@H](Cc4ccc(O)cc4)NC(=O)[C@H](Cc4ccccc4)NC(=O)CSC[C@@H](C(=O)N[C@@H](C)C(N)=O)NC(=O)[C@H](CO)NC(=O)[C@H](C(C)C)NC(=O)[C@H](CC(C)C)NC(=O)[C@H](CC(N)=O)NC(=O)[C@@H](C)NC(=O)[C@H](C)N(C)C(=O)[C@H](C(C)C)NC(=O)[C@H](Cc4ccc(-c5ccccc5)cc4)NC(=O)[C@H](CC(C)C)NC3=O)c[nH]c12` [Compound 1796] ({CH2CO}-FYD[Trp(7-Me)]L[Bip]V[NMeA][dA]NLVSCA-NH2; thioether N-14), the IC50 stood at 0.16 µM.

Turning to `CC(C)C[C@@H]1NC(=O)[C@H](Cc2c[nH]c3ccccc23)NC(=O)[C@H](CC(=O)O)NC(=O)[C@H](Cc2ccc(C(=O)O)cc2)NC(=O)[C@H](CC(N)=O)NC(=O)CSC[C@@H](C(=O)N[C@@H](C)C(N)=O)NC(=O)[C@H](CO)NC(=O)[C@H](C(C)C)NC(=O)[C@H](CC(C)C)NC(=O)[C@H](CC(N)=O)NC(=O)[C@@H](C)NC(=O)[C@H](C)N(C)C(=O)[C@H](C(C)C)NC(=O)[C@H](Cc2ccc(-c3ccccc3)cc2)NC1=O` [Compound 1754] ({CH2CO}-N[Phe(4-COOH)]DWL[Bip]V[NMeA][dA]NLVSCA-NH2; thioether N-14), the IC50 was determined as 0.03 µM.

With `CC(C)C[C@@H]1NC(=O)[C@H](CCCNC(=N)N)NC(=O)[C@@H](CC(C)C)NC(=O)[C@H](C)N(C)C(=O)[C@H](CCCNC(=N)N)NC(=O)[C@H](Cc2ccc(-c3ccccc3)cc2)NC(=O)[C@H](C(C)C)NC(=O)[C@H](Cc2c[nH]c3ccccc23)NC(=O)[C@H](CC(=O)O)NC(=O)[C@H](Cc2cc(I)c(O)c(I)c2)NC(=O)[C@H](Cc2ccccc2)NC(=O)CSC[C@@H](C(=O)N[C@@H](C)C(N)=O)NC(=O)[C@H]([C@@H](C)O)NC(=O)[C@H](C(C)C)NC1=O` [Compound 1093] ({CH2CO}-F[Tyr(3,5-I2)]DWV[Bip]R[NMeA][dL]RLVTCA-NH2; thioether N-14), the IC50 was determined as 0.05 µM.
